According to patent US10167262B2, “Herbicidal substituted 3-arylpyrazoles” (FMC CORPORATION, priority 2014, dated 2019):

Experiments:
Test in all cases: Test E pre-/postemergence greenhouse test, plant response rating 0-100
Type in all cases: in vivo
[1] = system: dayflower (Virginia (VA) dayflower, Commelina virginica); settings: scale 0 to 100; for Plant response rating, Dayflower, VA: Postemergence; for Dayflower, VA plant response rating: Preemergence
Method in brief: (§1)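 Ratings (0 no effect to 100 complete control) came from visual comparison with untreated controls 14 to 21 days after treatment. Compounds in a surfactant-containing non-phytotoxic solvent were applied preemergence to seeded silt loam and postemergence to plants at the 1- to 4-leaf stage.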

[2] = system: corn (Zea mays); settings: scale 0 to 100; for Plant response rating, Corn: Postemergence; for Corn plant response rating: Preemergence
Method in brief: as §1

[3] = system: sandbur (southern sandbur, Cenchrus echinatus); settings: scale 0 to 100; for Plant response rating, Sandbur: Postemergence; for Sandbur plant response rating: Preemergence
Method in brief: as §1

[4] = system: soybean (Glycine max); settings: scale 0 to 100; for Plant response rating, Soybean: Postemergence; for Soybean plant response rating: Preemergence
Method in brief: as §1

[5] = system: barnyardgrass (Echinochloa crus-galli); settings: scale 0 to 100; for Plant response rating, Barnyardgrass: Postemergence; for Barnyardgrass plant response rating: Preemergence
Method in brief: as §1

[6] = system: Italian ryegrass (Lolium multiflorum); settings: scale 0 to 100; for Plant response rating, Ryegrass, Italian: Postemergence; for Ryegrass, Italian plant response rating: Preemergence
Method in brief: as §1

[7] = system: wild poinsettia (Euphorbia heterophylla); settings: scale 0 to 100; for Plant response rating, Poinsettia, Wild: Postemergence; for Poinsettia, Wild plant response rating: Preemergence
Method in brief: as §1

[8] = system: palmer pigweed (Amaranthus palmeri); settings: scale 0 to 100; for Plant response rating, Pigweed, Palmer: Postemergence; for Pigweed, Palmer plant response rating: Preemergence
Method in brief: as §1

[9] = system: arrowleaf sida (Sida rhombifolia); settings: for Plant response rating, Arrowleaf Sida: Postemergence; for Arrowleaf Sida plant response rating: Preemergence
Method in brief: as §1

[10] = system: waterhemp (common waterhemp, Amaranthus rudis); settings: scale 0 to 100; for Plant response rating, Waterhemp: Postemergence; for Waterhemp plant response rating: Preemergence
Method in brief: as §1

[11] = system: Brazilian crabgrass (Digitaria horizontalis); settings: scale 0 to 100; for Plant response rating, Crabgrass, Brazil: Postemergence; for Crabgrass, Brazil plant response rating: Preemergence
Method in brief: as §1

[12] = system: hairy beggarticks (Bidens pilosa); settings: scale 0 to 100; for Plant response rating, Beggarticks: Postemergence; for Beggarticks plant response rating: Preemergence
Method in brief: as §1

## O=Cn1cc(C(=O)c2ccccc2)c(-c2cc(Cl)cc(Cl)c2)n1 [Compound 28]
[1]; 31 g ai/ha
  Plant response rating, Dayflower, VA: 0
  Dayflower, VA plant response rating: 0
[1]; 62 g ai/ha
  Plant response rating, Dayflower, VA: 0
  Dayflower, VA plant response rating: 0
[1]; 125 g ai/ha
  Plant response rating, Dayflower, VA: 0
  Dayflower, VA plant response rating: 0
[1]; 250 g ai/ha
  Plant response rating, Dayflower, VA: 0
  Dayflower, VA plant response rating: 0
[1]; 500 g ai/ha
  Plant response rating, Dayflower, VA: 0
  Dayflower, VA plant response rating: 0
[2]; 31 g ai/ha
  Plant response rating, Corn: 0
  Corn plant response rating: 0
[2]; 62 g ai/ha
  Plant response rating, Corn: 0
  Corn plant response rating: 0
[2]; 125 g ai/ha
  Plant response rating, Corn: 0
  Corn plant response rating: 0
[2]; 250 g ai/ha
  Plant response rating, Corn: 0
  Corn plant response rating: 0
[2]; 500 g ai/ha
  Plant response rating, Corn: 0
  Corn plant response rating: 0
[3]; 31 g ai/ha
  Plant response rating, Sandbur: 0
  Sandbur plant response rating: 0
[3]; 62 g ai/ha
  Plant response rating, Sandbur: 0
  Sandbur plant response rating: 0
[3]; 125 g ai/ha
  Plant response rating, Sandbur: 0
  Sandbur plant response rating: 0
[3]; 250 g ai/ha
  Plant response rating, Sandbur: 0
  Sandbur plant response rating: 0
[3]; 500 g ai/ha
  Plant response rating, Sandbur: 0
  Sandbur plant response rating: 0
[4]; 31 g ai/ha
  Plant response rating, Soybean: 0
  Soybean plant response rating: 0
[4]; 62 g ai/ha
  Plant response rating, Soybean: 0
  Soybean plant response rating: 0
[4]; 125 g ai/ha
  Plant response rating, Soybean: 0
  Soybean plant response rating: 0
[4]; 250 g ai/ha
  Plant response rating, Soybean: 0
  Soybean plant response rating: 0
[4]; 500 g ai/ha
  Plant response rating, Soybean: 0
  Soybean plant response rating: 0
[5]; 31 g ai/ha
  Plant response rating, Barnyardgrass: 0
  Barnyardgrass plant response rating: 0
[5]; 62 g ai/ha
  Plant response rating, Barnyardgrass: 0
  Barnyardgrass plant response rating: 0
[5]; 125 g ai/ha
  Plant response rating, Barnyardgrass: 0
  Barnyardgrass plant response rating: 0
[5]; 250 g ai/ha
  Plant response rating, Barnyardgrass: 0
  Barnyardgrass plant response rating: 0
[5]; 500 g ai/ha
  Plant response rating, Barnyardgrass: 0
  Barnyardgrass plant response rating: 0
[6]; 31 g ai/ha
  Plant response rating, Ryegrass, Italian: 0
  Ryegrass, Italian plant response rating: 0
[6]; 62 g ai/ha
  Plant response rating, Ryegrass, Italian: 0
  Ryegrass, Italian plant response rating: 0
[6]; 125 g ai/ha
  Plant response rating, Ryegrass, Italian: 0
  Ryegrass, Italian plant response rating: 0
[6]; 250 g ai/ha
  Plant response rating, Ryegrass, Italian: 0
  Ryegrass, Italian plant response rating: 10
[6]; 500 g ai/ha
  Plant response rating, Ryegrass, Italian: 0
  Ryegrass, Italian plant response rating: 20
[7]; 31 g ai/ha
  Plant response rating, Poinsettia, Wild: 0
  Poinsettia, Wild plant response rating: 0
[7]; 62 g ai/ha
  Plant response rating, Poinsettia, Wild: 0
  Poinsettia, Wild plant response rating: 0
[7]; 125 g ai/ha
  Plant response rating, Poinsettia, Wild: 0
  Poinsettia, Wild plant response rating: 0
[7]; 250 g ai/ha
  Plant response rating, Poinsettia, Wild: 10
  Poinsettia, Wild plant response rating: 0
[7]; 500 g ai/ha
  Plant response rating, Poinsettia, Wild: 15
  Poinsettia, Wild plant response rating: 0
[8]; 31 g ai/ha
  Plant response rating, Pigweed, Palmer: 50
  Pigweed, Palmer plant response rating: 0
[8]; 62 g ai/ha
  Plant response rating, Pigweed, Palmer: 70
  Pigweed, Palmer plant response rating: 0
[8]; 125 g ai/ha
  Plant response rating, Pigweed, Palmer: 70
  Pigweed, Palmer plant response rating: 0
[8]; 250 g ai/ha
  Plant response rating, Pigweed, Palmer: 80
  Pigweed, Palmer plant response rating: 25
[8]; 500 g ai/ha
  Plant response rating, Pigweed, Palmer: 90
  Pigweed, Palmer plant response rating: 100
[9]; 31 g ai/ha, scale 0 to 100
  Plant response rating, Arrowleaf Sida: 65
  Arrowleaf Sida plant response rating: 0
[9]; 62 g ai/ha, scale 0 to 100
  Plant response rating, Arrowleaf Sida: 60
  Arrowleaf Sida plant response rating: 20
[9]; 125 g ai/ha, scale 0 to 100
  Plant response rating, Arrowleaf Sida: 75
  Arrowleaf Sida plant response rating: 75
[9]; 250 g ai/ha, scale 0 to 100
  Plant response rating, Arrowleaf Sida: 85
  Arrowleaf Sida plant response rating: 90
[9]; 500 g ai/ha, scale 0 to 100 (0 no effect, 100 complete control)
  Plant response rating, Arrowleaf Sida: 90
[9]; 500 g ai/ha, scale 0 to 100
  Arrowleaf Sida plant response rating: 100
[10]; 31 g ai/ha
  Plant response rating, Waterhemp: 80
  Waterhemp plant response rating: 0
[10]; 62 g ai/ha
  Plant response rating, Waterhemp: 85
  Waterhemp plant response rating: 0
[10]; 125 g ai/ha
  Plant response rating, Waterhemp: 85
  Waterhemp plant response rating: 65
[10]; 250 g ai/ha
  Plant response rating, Waterhemp: 90
  Waterhemp plant response rating: 95
[10]; 500 g ai/ha
  Plant response rating, Waterhemp: 90
  Waterhemp plant response rating: 95
[11]; 31 g ai/ha
  Plant response rating, Crabgrass, Brazil: 0
  Crabgrass, Brazil plant response rating: 0
[11]; 62 g ai/ha
  Plant response rating, Crabgrass, Brazil: 0
  Crabgrass, Brazil plant response rating: 0
[11]; 125 g ai/ha
  Plant response rating, Crabgrass, Brazil: 0
  Crabgrass, Brazil plant response rating: 0
[11]; 250 g ai/ha
  Plant response rating, Crabgrass, Brazil: 0
  Crabgrass, Brazil plant response rating: 35
[11]; 500 g ai/ha
  Plant response rating, Crabgrass, Brazil: 0
  Crabgrass, Brazil plant response rating: 65
[12]; 31 g ai/ha
  Plant response rating, Beggarticks: 80
  Beggarticks plant response rating: 0
[12]; 62 g ai/ha
  Plant response rating, Beggarticks: 90
  Beggarticks plant response rating: 0
[12]; 125 g ai/ha
  Plant response rating, Beggarticks: 95
  Beggarticks plant response rating: 40
[12]; 250 g ai/ha
  Plant response rating, Beggarticks: 98
  Beggarticks plant response rating: 70
[12]; 500 g ai/ha
  Plant response rating, Beggarticks: 98
  Beggarticks plant response rating: 70
